Reference: paper PMC10384666, “Impact of Peptide Structure on Colonic Stability and Tissue Permeability” (Pharmaceutics, 2023)
Bridge positions count the residues as written; N and C are the ends. Square brackets hold non-standard residues; d marks the D form. Ends that are not written are not given here. Peptide text beside a SMILES is read from it.

Legend:
[1] = Peptide stability in a human colon model (pooled human faecal slurry, anaerobic); format: in vitro ADME; settings: for Degradation rate constant / half-life at 1 mg/mL: fitted to exponential (one-phase, first-order) decay model; for Degradation rate constant: plateau 0.0; for remaining at 1.5 h, 1 mg/mL: after 1.5 h incubation, n = 3, read-out: peptide remaining intact (of starting concentration); for higher stability than linear P1: at 30 min, relative to P1 (totally degraded); for time interval in which entirely depleted: footnote to Table S1
Experimental: The human colon model (HCM) was prepared to mimic in vivo colonic conditions and maintain microbial viability. Fresh human faecal material was provided voluntarily from 3 healthy individuals who had not taken antibiotics for at least 6 months. Approval for the collection and use of human faecal material was obtained from the National Research Ethics Service (NRES) of Royal Free Hospital Biobank (reference number NC2017.010). Faecal material from the 3 donors was pooled and then diluted within an anaerobic workstation (37 °C, 70% relative humidity) (Elektrotek, Yorkshire, United Kingdom), using an in-house basal growth media to prepare 12.5% or 25% faecal slurries. These slurry concentrations have been used to measure the colonic stability of several drugs and exceed the minimum concentrations required for biorelevant bacterial activity. The samples were homogenised before being sieved (SefarNitex™, pore size 350 µm) to remove fibrous material. Faecal slurry was frozen at −80 °C in aliquots and thawed immediately prior to use.
Peptide stability studies were conducted within the anaerobic workstation (Elektrotek, Yorkshire, United Kingdom). An amount of 2 mg/mL stock solutions of oxytocin and oxytocin variants were prepared and added to HCM at a 1:1 ratio, leading to 1 mg/mL incubation concentrations (n = 3 for each peptide). Incubation vials were placed on a 100 RPM shaker and 50 µL samples were withdrawn at specific time intervals (0, 0.5, 1 and 1.5 h) and immediately quenched with 50 µL methanol (1:1) to terminate protease activity. Samples were centrifuged at 16,900 RCF for 10 min at 4 °C, and the supernatant was collected for peptide quantification with a 1260 II Series™ HPLC system (Agilent Technologies, Cheadle, UK). A Luna C18 (5 µm, 100 Å, 150 × 4.6 mm) HPLC column was used with a 1.0 mL/min flow rate, an injection volume of 20 µL and mobile phases of 0.1% TFA in water and ACN, with varying gradients for optimised individual peptide quantification to prevent overlap with endogenous components of the HCM.
All results are presented as mean ± standard deviation and subjected to statistical analysis using GraphPad Prism 9 (GraphPad by Dotmatics). Two-way ANOVA with Dunnett’s multiple comparison test was performed to determine statistical significance between peptides and native oxytocin at multiple timepoints. Results were deemed significant where p < 0.05. The physicochemical properties of peptides were estimated using RDKit (version 2021.09.4) in Python (version 3.6.15) via Jupyter Notebook (version 6.3.0) using the peptides’ isomeric SMILES. The Tanimoto similarities of the peptide variants’ molecular structure to native oxytocin was calculated using chemical fingerprints (ECFP6, radius 3, 2048 bits) RDKit (version 2022.9.1) with Python (version 3.7.0) via Google Colaboratory. Chemical similarity maps were generated using RDKit based on bit-vector fingerprints (chirality = true, radius 3, 2048 bits) and Tanimoto similarity. The degradation profiles of peptides were fitted to an exponential decay model in GraphPad Prism 9. A nonlinear regression (one-phase decay, also known as first-order decay) curve was fitted to the peptide stability data with a plateau constraint of 0.0.

[2] = Peptide tissue permeability, Ussing chamber with rat colonic tissue; format: in vitro ADME; settings: for original dose detected in the basolateral chamber / original dose detected within the colonic tissue: at 2 h; for Papp at 2 h, 1 mg/mL: pH 7.4, 2 h (120 min)
Experimental: Peptide permeability studies were conducted using the NaviCyte Vertical Ussing chamber model (Harvard Apparatus, Cambridge, UK). Amounts of 250–300 g adult male Wistar rats (n = 3) were selected and sacrificed, in accordance with the accepted ethical standards of the National Research Ethics Service (ethical approval number 21/WA/0388). The rat colonic tissues were excised, processed to remove luminal contents and gently washed with Krebs-Ringer Bicarbonate (KBR) buffer (pH 7.4). Each colonic tissue was mounted on an Ussing chamber with the mucosal side facing the apical chamber. The tissue was allowed to acclimatise in the KBR buffer for 20 min. Transepithelial electrical resistance (TEER) across the tissue was measured using an EVOM^TM voltameter (World Precision Instruments, Inc., Hertfordshire, UK) and Ag/AgCl electrodes (Harvard Apparatus, Cambridge, UK). TEER values were measured to ensure the tissue integrity was maintained (≥200 Ω cm^2). The native oxytocin and oxytocin variants at 1 mg/mL concentrations were added to the apical chamber to measure peptide permeation into the tissue and into the basal chamber. Each peptide was tested twice using tissue from the three rats to account for any inter-animal variability. The Ussing chambers were continuously pumped with a supply of carbogen (95% oxygen/5% carbon dioxide) and maintained at 37 °C. An amount of 100 µL samples were taken from the basal side at 1 and 2 h timepoints. At 2 h, the tissues were collected, quenched with 6.25 µL methanol/mg tissue, sectioned with scissors, sonicated for 5 min and centrifuged for 10 min (4 °C, 16,900 RCF), with the supernatant used for peptide quantification. The amount of peptide within the basal chamber and tissue samples was measured with the HPLC method described in Section 3.3 and presented as the percentage of the peptide dose originally applied to the apical chamber. The apparent permeability (Papp) of peptides was calculated using Equation (1):(1) […]
Equation (1): Apparent permeability (Papp) of peptides across the rat colonic tissue was calculated using the peptide flux (µg/s, dQ/dt), the surface area of the tissue (cm^2) and the initial peptide concentration in the apical chamber (C0).

[3] = human, human colon model (HCM), pooled human faecal slurry
[4] = human, human colon model (pooled human faecal slurry, anaerobic), HCM
[5] = male, Wistar, 1 mg/mL apical, read-out: apparent permeability (Papp)

Degradation rate constant ([1]; HCM) [h⁻¹] | half-life at 1 mg/mL [1, 3] [min] | remaining at 1.5 h, 1 mg/mL [1, 4] [%] | Compound | also measured
2.05 | 20.3 |  | CC[C@@H](C)[C@@H](NC(=O)[C@@H](Cc1ccc(O)cc1)NC(=O)[C@H](C)N)C(=O)N[C@@H](CCC(N)=O)C(=O)N[C@@H](CC(N)=O)C(=O)N[C@@H](C)C(=O)N1CCC[C@H]1C(=O)N[C@@H](CC(C)C)C(=O)NCC(N)=O [Peptide P10] (H-A[dY][dI]QNAPLG-NH2) | 
2.33 | 17.8 | 3.7 ± 0.43 | CC[C@@H](C)[C@H]1NC(=O)[C@@H](Cc2ccc(O)cc2)NC(=O)[C@@H](N)CSSC[C@@H](C(=O)N2CCC[C@H]2C(=O)N[C@@H](CC(C)C)C(=O)NCC(N)=O)NC(=O)[C@H](CC(N)=O)NC(=O)[C@H](CCC(N)=O)NC1=O [Peptide P8] | 
1.05 | 39.6 | 22.3 ± 0.85 | CC[C@H](C)[C@@H]1NC(=O)[C@H](Cc2ccc(O)cc2)NC(=O)[C@@H](N)CSSC[C@@H](C(=O)N2CCC[C@H]2C(=O)N[C@H](CC(C)C)C(=O)NCC(N)=O)NC(=O)[C@H](CC(N)=O)NC(=O)[C@H](CCC(N)=O)NC1=O [Peptide P7] | 
0.0322 | 1290 | 95.2 ± 3.14 | CC[C@@H](C)[C@H]1NC(=O)[C@@H](Cc2ccc(O)cc2)NC(=O)[C@H](C)NC(=O)CSC[C@@H](C(=O)N2CCC[C@H]2C(=O)N[C@H](CC(C)C)C(=O)NCC(N)=O)NC(=O)[C@H](CC(N)=O)NC(=O)[C@H](CCC(N)=O)NC1=O [Peptide P5] ({CH2CO}-A[dY][dI]QNCP[dL]G-NH2; thioether N-6) | 
3.17 | 13.1 |  | CC[C@H](C)[C@@H]1NC(=O)[C@H](Cc2ccc(O)cc2)NC(=O)[C@@H](NC(C)=O)CSSC[C@@H](C(=O)N2CCC[C@H]2C(=O)N[C@@H](CC(C)C)C(=O)NCC(N)=O)NC(=O)[C@H](CC(N)=O)NC(=O)[C@H](CCC(N)=O)NC1=O [Peptide P2] | metabolised at 1.5 h, 1 mg/mL ([1]; human, human colon model (pooled human faecal slurry, anaerobic), HCM, after 1.5 h, read-out: peptide degraded by the HCM): 97.2 ± 0.84%
5.39 | 7.71 |  | CC[C@H](C)[C@@H]1NC(=O)[C@H](Cc2ccc(O)cc2)NC(=O)[C@@H](N)CSCc2cccc(c2)CSC[C@@H](C(=O)N2CCC[C@H]2C(=O)N[C@@H](CC(C)C)C(=O)NCC(N)=O)NC(=O)[C@H](CC(N)=O)NC(=O)[C@H](CCC(N)=O)NC1=O [Peptide P6] | time to 100% degradation ([1]; HCM): less than 1 h
1.62 |  | 6 ± 1.36 | CC[C@H](C)[C@@H]1NC(=O)[C@H](Cc2ccc(O)cc2)NC(=O)[C@@H](N)CSSC[C@@H](C(=O)N2CCC[C@H]2C(=O)N[C@@H](CC(C)C)C(=O)NCC(N)=O)NC(=O)[C@H](CC(N)=O)NC(=O)[C@H](CCC(N)=O)NC1=O [Oxytocin, oxytocin, reference compound] | original dose detected in the basolateral chamber [2]: not detected; original dose detected within the colonic tissue [2]: not detected; higher stability than linear P1 ([1]; HCM): 47.3 ± 1.98%; half-life at 1 mg/mL ([1]; human, HCM): 25.7 min
 |  |  | P1: Linear form of oxytocin, the two cysteines replaced by alanines (AYIQNAPLG-NH2; ends and bridges not checked; UniProt P01178 20-28, looked up, variant C1A C6A) [Peptide P1] | time interval in which entirely depleted ([1]; HCM): 0.0 to 0.5 h
0.108 | 385 | 85.1 ± 0.21 | CC[C@@H](C)[C@H]1NC(=O)[C@@H](Cc2ccc(O)cc2)NC(=O)[C@@H](N)CSSC[C@@H](C(=O)N2CCC[C@H]2C(=O)N[C@H](CC(C)C)C(=O)NCC(N)=O)NC(=O)[C@H](CC(N)=O)NC(=O)[C@H](CCC(N)=O)NC1=O [Peptide P4] | original dose detected in the basolateral chamber [2]: 6.85 ± 2.05%; original dose detected within the colonic tissue [2]: 3.0 ± 0.85%; Papp at 1 h, 1 mg/mL ([2]; male, Wistar, pH 7.4, 1 h (60 min), 1 mg/mL apical, read-out: apparent permeability (Papp)): 57 ×10⁻⁶ cm/s; Papp at 2 h, 1 mg/mL [2, 5]: 206 ×10⁻⁶ cm/s; higher stability than linear P1 ([1]; HCM): 90.3 ± 1.57%
0.289 | 144 | 64.2 ± 1.18 | CC[C@@H](C)[C@@H](NC(=O)[C@@H](Cc1ccc(O)cc1)NC(=O)[C@H](C)N)C(=O)N[C@@H](CCC(N)=O)C(=O)N[C@@H](CC(N)=O)C(=O)N[C@@H](C)C(=O)N1CCC[C@H]1C(=O)N[C@H](CC(C)C)C(=O)NCC(N)=O [Peptide P11] (H-A[dY][dI]QNAP[dL]G-NH2) | Papp at 2 h, 1 mg/mL [2, 5]: 35.2 ×10⁻⁶ cm/s
0.688 | 60.4 | 34.4 ± 0.61 | CC[C@H](C)[C@@H]1NC(=O)[C@H](Cc2ccc(O)cc2)NC(=O)[C@H](C)NC(=O)CSC[C@@H](C(=O)N2CCC[C@H]2C(=O)N[C@@H](CC(C)C)C(=O)NCC(N)=O)NC(=O)[C@H](CC(N)=O)NC(=O)[C@H](CCC(N)=O)NC1=O [Peptide P3] ({CH2CO}-AYIQNCPLG-NH2; thioether N-6) | 
 |  |  | CC[C@H](C)[C@H](NC(=O)[C@H](Cc1ccc(O)cc1)NC(=O)[C@H](C)N)C(=O)N[C@@H](CCC(N)=O)C(=O)N[C@@H](CC(N)=O)C(=O)N[C@@H](C)C(=O)N1CCC[C@H]1C(=O)N[C@H](CC(C)C)C(=O)NCC(N)=O [Peptide P9] (H-AYIQNAP[dL]G-NH2) | time to total degradation ([1]; HCM): less than 30 min; time interval in which entirely depleted ([1]; HCM): 0.0 to 0.5 h
